Results on one compound are retold here after PMC8910920 (International Journal of Molecular Sciences, 2022).

In data set [1] the test system is NTG-induced mechanical hypersensitivity in C57BL6 mice. In words: NTG-induced mechanical hypersensitivity, von Frey test. It is filed as in vivo, mouse. From the text:
Administration of NTG intermittently produces a baseline hypersensitivity to mechanical stimulation, which can be measured by the von Frey test. The mechanical stimulus was applied at different times to obtain the time course of the effects produced after compound administration, and both male and female mice were used to investigate a possible sex dimorphism.
C57BL6 mice (males and females, ≈25 g) (Envigo, Blackthorn, UK) were used for the study. All experiments were approved by the Institutional Animal and Ethical Committee of the Universidad Miguel Hernandez where experiments were conducted and they were in accordance with the guidelines of the Economic European Community and the Committee for Research and Ethical Issues of the International Association for the Study of Pain. All parts of the study concerning animal care were performed under the control of veterinarians. […] The 50% response threshold was calculated using the following formula:50% (g) threshold = (10^(Xf + kd))/10,000 where Xf is the value of the last von Frey filament applied; k is a correction factor based on pattern of responses (from the Dixon’s calibration table); d is the mean distance in log units between stimuli (here, 0.4).
Von Frey threshold for each animal was calculated, according to the formula, and data analysis was performed by using GraphPad 6.0. […]

The nature of data set [2]: Partition coefficient (Log D). It is filed as physicochemical. Here is the method: These studies were subcontracted to Eurofins-CEREP or Eurofins-PANLABS. Briefly, agonists and antagonist assays were performed in cell cultures overexpressing the corresponding channel (CHO: TRPV1 and TRPA1; HEK293: TRPV3 and ASIC3). In vitro pharmacology, cellular channel functional assays: the compound was prepared in assay buffer to the final concentration, 10 μM. The compound wells, reference agonist and background vehicle controls were prepared in DMSO at 0.3%. […] The reference agonist for each Ion Channel was included at Emax (the concentration where the reference agonist elicited a maximal response). The agonist assay was conducted on fluorimeter instruments where the test compound, vehicle controls, and reference agonist were added to the assay plate after a fluorescence baseline was established. […] For the antagonist assay, the compound was pre-incubated for five minutes at room temperature, and then challenged with the EC80 concentration of the reference agonist after establishment of a fluorescence baseline. […] Binding assay results are expressed as a percent of control specific binding. […] Aqueous solubility (μM) was determined by comparing the peak area of the principal peak in a calibration standard (200 μM) containing organic solvent (methanol/water, 60/40, v/v) with the peak area of the corresponding peak in a buffer sample. […] Permeability was measured in CACO-2 monolayers.

Entries after “also recorded” stand apart in the source; their conditions may differ.

As usually defined, the Log D is lipophilicity at a set pH, counting ionised and neutral species. What is called logD is the decadic logarithm of the distribution of all forms, ionised or not, between an organic phase and buffer at a given pH. High values mean a more lipophilic compound, low ones a more hydrophilic compound. As for `C[C@@H]1C(=O)N(C[C@H](Cc2ccccc2)N(Cc2ccccc2)Cc2ccccc2)[C@]1(Cc1ccccc1)C(=O)OC(C)(C)C` [RGM8-51, 4(S)-Benzyl-3S-methyl-4-(tert-butoxy)carbonyl-1-[(2′S-dibenzylamino-3′-phenyl)prop-1′-yl]-2-oxoazetidine], the “NTG-induced mechanical hypersensitivity, male mice” value in data set [1] (30 mg/kg i.p., 60 min post-administration (only this dose and time)) is recorded as “significantly blocked”. Also, the “NTG-induced mechanical hypersensitivity, female mice” value in data set [1] (10 and 30 mg/kg i.p., significant at 30 min, lasting even after 120 min) was “fully blocked; also recorded: significantly reduces the hypersensitivity threshold induced by NTG”. The “Log D” value in data set [2] came out at 5.7. The logD in data set [2] (organic phase/aqueous buffer partition) amounted to 5.77.
